Columns and labels:
[1] = target: T1, METTL3/METTL14 (Homo sapiens, UniProt Q86U44); test: Inhibition of METTL3/METTL14 (unknown origin); assay type: protein-complex assay
[2] = tested on: Caov-3 cell line; test: Antiproliferative activity against human Caov-3 cell line assessed as inhibition of cell proliferation incubated for 120 hrs by CellTiter-Glo assay; assay type: functional, cell-based; settings: Caov-3, 120 h
[3] = tested on: Kasumi 1; test: Antiproliferative activity against human Kasumi 1 cells assessed as inhibition of cell proliferation incubated for 120 hrs by CellTiter-Glo assay; assay type: functional, cell-based; settings: Kasumi 1, 120 h
[4] = tested on: MOLM-13; test: Antiproliferative activity against human MOLM-13 cells assessed as inhibition of cell proliferation and measured after 7 days by CellTiter-Glo assay; assay type: functional, cell-based; settings: MOLM-13, 168 h
[5] = tested on: NOMO-1; test: cells; settings: Homo sapiens, NOMO-1, 168 h
[6] = tested on: EOL1; test: cells; settings: Homo sapiens, EOL1, 168 h
[7] = tested on: OCI-AML2; test: cells; settings: Homo sapiens, OCI-AML2, 168 h
[8] = tested on: OCI-AML-3; test: cells; settings: Homo sapiens, OCI-AML-3, 168 h
[9] = tested on: HL-60; test: cells; settings: Homo sapiens, HL-60, 168 h
[10] = tested on: Kasumi 1; test: cells; settings: Homo sapiens, Kasumi 1, 168 h
[11] = target: T2, N6-adenosine-methyltransferase catalytic subunit (Homo sapiens, UniProt Q86U44); test: Inhibition of METTL3 in human MOLM-13 cells assessed as decrease in cellular m6A mRNA level incubated for 24 hrs by NanoDrop spectrophotometer based LC-MS/MS analysis; assay type: cell-based
[12] = tested on: MOLM-13; test: Antiproliferative activity against human MOLM-13 cells assessed as inhibition of cell proliferation incubated for 96 hrs by Cell Titer-Glo reagent assay; assay type: functional, cell-based; settings: MOLM-13, 96 h
[13] = target: T1, METTL3/METTL14; test: Inhibition of METTL3/METTL14 (unknown origin) using biotinylated RNA (UCUGGACUAAA-biotin) and 3H-SAM as substrate preincubated for 5 mins followed by substrate addition and measured after 30 mins by scintillation counter analysis; assay type: protein-complex assay
[14] = tested on: MOLM-13; test: Antiproliferative activity against human MOLM-13 cells assessed as cell growth inhibition; assay type: functional
[15] = tested on: THP-1; test: Antiproliferative activity against human THP-1 cells assessed as cell growth inhibition; assay type: functional
[16] = tested on: MOLM-14; test: Antiproliferative activity against human MOLM-14 cells assessed as cell growth inhibition; assay type: functional
[17] = tested on: HL-60; test: Antiproliferative activity against human HL-60 cells assessed as cell growth inhibition; assay type: functional
[18] = tested on: MOLM-13; test: Antiproliferative activity against human MOLM-13 cells assessed as decrease cell proliferation; assay type: functional, cell-based
[19] = target: T1, METTL3/METTL14
[20] = tested on: MOLM-13; test: Antiproliferative activity against human MOLM-13 cells assessed as inhibition of cell proliferation incubated for 48 hrs by Cell Titer-Glo reagent assay; assay type: functional, cell-based; settings: MOLM-13, 48 h
[21] = target: T2, N6-adenosine-methyltransferase catalytic subunit
[22] = target: T1, METTL3/METTL14; test: Inhibition of METTL3/METTL14 (unknown origin) using RNA 5'-GGACUGGACUGGACU-3' as substrate incubated for 2 hrs by LC-MS/MS analysis; assay type: protein-complex assay
[23] = target: T1, METTL3/METTL14; test: Inhibition of full-length His-tagged METTL3/full length FLAG-tagged METTL14 (unknown origin) expressed in baculovirus expression system using synthetic RNA 5'P-uacacucgaucuggacuaaagcugcuc-3' and SAM as substrate preincubated for 10 mins followed by substrate addition and measured after 60 mins by RF/MS analysis
[24] = Selectivity ratio of IC50 for inhibition of METTL3/METTL14 (unknown origin) to IC50 for inhibition of PRMT5/MEP50 (unknown origin)
[25] = Selectivity ratio of IC50 for inhibition of METTL3/METTL14 (unknown origin) to IC50 for inhibition of FLT3 (unknown origin)
[26] = target: T1, METTL3/METTL14; test: Competive inhibition of full length human METTL3/METTL14 expressed in Sf9 cells using single strand RNA 5'-AAGAACCGGACUAAGCU-3' and SAM as substrate incubated for 40 mins by HTRF assay

In the case of `O=C(O)c1ccccc1OCCc1cn(C(c2ccccc2)c2ccccc2)c2ccc(-c3ccc(F)cc3)cc12`, the IC50 [1] is reported as 6 µM.

In the case of `Nc1ncnc2c1ccn2[C@@H]1C[C@H](c2ccc3cc(CN4CCC5(CCC5)C4)[nH]c3c2)[C@@H](O)[C@H]1O` (single isomer, unassigned), the IC50 [2] is reported as 250 nM and the IC50 [3] is reported as 950 nM.

In the case of `O=C(NCc1cn2cc(CNCC3CCCCC3)ccc2n1)c1cc(=O)n2ccccc2n1`, the IC50 [4] is reported as 1040 nM, the IC50 [5] is reported as 600 nM and the IC50 [6] is reported as 1940 nM. It also gave an IC50 [7] of 1780 nM, an IC50 [8] of 3.2 µM and an IC50 [9] of 10.3 µM. The IC50 [10] was 700 nM.

For `CCc1cc(NCCOC)c2ccc(CCc3cncc(-n4cc(-c5ccn(C)n5)c5c(N)ncnc54)c3)cc2n1`, the IC50 [11] was under 1000 nM, the IC50 [12] was under 10 µM and the IC50 [13] was under 10 nM.

`O=C(O)c1ccccc1OCCc1cn(-c2ccc(-c3c(Cl)cccc3Cl)cc2)c2ccc(-c3ccc(F)cc3)cc12` showed a GI50 [14] of 14.6 µM, a GI50 [15] of 21.6 µM and a GI50 [16] of 13.1 µM. The GI50 [17] was 15.5 µM, the EC50 [18] was 14.6 µM and the IC50 [19] was 4.92 µM.

`CNc1ccc2ccc(OC[C@H]3O[C@@H](n4cc([C@@H]5CCCO5)c5c(N)ncnc54)[C@@H](F)[C@@H]3O)cc2n1` gave an IC50 [11] of under 1000 nM, an IC50 [20] of under 10 µM and an IC50 [12] of under 10 µM. It also gave an IC50 [13] of under 10 nM.

In the case of `COc1cc2c(cc1Cc1cccc(Cl)c1F)c(=O)c(C(=O)O)cn2[C@H](CO)C(C)C`, the Kd [21] is reported as 4.79 nM.

Compound `Cc1c(CCOc2ccc(C(=O)O)cc2)c2cc(Cl)ccc2n1C(c1ccccc1)c1ccccc1` has an IC50 [1] of 17.3 µM.

`O=C(O)c1ccccc1OCCc1cn(-c2cccc(-c3ccccc3)c2)c2ccc(-c3ccc(F)cc3)cc12` showed an IC50 [1] of 2.74 µM and an EC50 [18] of 29.9 µM.

`O=C(O)[C@H]1O[C@@H](Oc2cc3oc(-c4ccc(O)cc4)cc(=O)c3c(O)c2O)[C@H](O)[C@@H](O)[C@@H]1O` [SCUTELLARIN] showed an IC50 [22] of 19.2 µM.

In the case of `COc1cc(-c2cn(Cc3cn4cc(CNCC5CCC5)ccc4n3)nn2)c2cn[nH]c2c1`, the IC50 [23] is reported as 3.63 nM.

Compound `COc1cc(-c2cn(Cc3cn4cc(CNCC56CC(C5)C6)ccc4n3)nn2)c2cncn2c1` has an IC50 [2] of 110 nM and an IC50 [3] of 419 nM.

With `Nc1ncnc2c1c(-n1cccn1)cn2[C@H]1C[C@H](O)[C@@H](COc2ccc3ccc(N4CCC4)nc3c2)O1` the IC50 [11] was under 1000 nM, the IC50 [20] was under 10 µM and the IC50 [12] was under 10 µM. For the same compound, the IC50 [13] was under 10 nM.

`Cn1ccc(-c2cn([C@@H]3O[C@H](C(=O)Nc4ccc5ccc(N6CCC6)nc5c4)[C@@H](O)[C@@H]3F)c3ncnc(N)c23)n1` showed a Ratio IC50 [24] of over 100, a Ratio IC50 [25] of over 100 and an IC50 [13] of under 10 nM.

`Nc1ncnc2c1ncn2[C@@H]1O[C@H](C(=O)NCC2CCNCC2)[C@@H](O)[C@H]1O` (single isomer, unassigned) gave an IC50 [26] of over 250 µM.

For `O=C(O)c1ccccc1OCCc1cn(C(c2ccccc2)c2ccccc2)c2ccc(Cl)cc12`, the IC50 [1] was 13 µM.

In the case of `CCc1cc(N(C)CCOC)c2ccc(CCc3cncc(-n4cc(-c5ccn(C)n5)c5c(N)ncnc54)c3)cc2n1`, the IC50 [11] is reported as under 1000 nM, the IC50 [12] is reported as under 10 µM and the IC50 [13] is reported as under 10 nM.

`O=C(O)c1ccccc1OCCc1cn(-c2ccc(-c3ccccc3)cc2)c2ccc(-c3ccc(F)cc3)cc12` gave an IC50 [1] of 2.95 µM and an EC50 [18] of 32.5 µM.

Compound `O=C(O)c1ccccc1OCCc1cn(C(c2ccccc2)c2ccccc2)c2ccc(-c3ccccc3)cc12` has an IC50 [1] of 8.63 µM.

`O=c1cc(-c2ccc(O)c(O)c2)oc2cc(O)cc(O)c12` [LUTEOLIN] showed an IC50 [22] of 6.23 µM.
